Assay results from EP4223292A1, “PHARMACEUTICAL COMBINATIONS FOR TREATING CANCER” (Cellestia Biotech AG, priority 2022, dated 2023).

Tested on: Human TNBC cell line HCC1187
Test: In vivo efficacy study, tumor growth delay of subcutaneous HCC1187 xenograft
Parameters: species or system NSG mice
Details: for TGD compared to control (group a): endpoint ten times the initial volume (1000%), difference of MTTE versus control
Description: Cultured cells were harvested, washed and counted. One million cells per mouse were subcutaneously transplanted into NSG mice. Animals were monitored for tumor growth. Once average tumor volume reached between 50-130 mm^3, animals were randomized for treatment with 6-(4-Tert-Butylphenoxy)Pyridin-3-Amine , Paclitaxel as single agent and 6-(4-Tert-Butylphenoxy)Pyridin-3-Amine + Paclitaxel combination. The treatment regimen was implemented as below: • a) Vehicle • b) 6-(4-Tert-Butylphenoxy)Pyridin-3-Amine single agent for 2 weeks • c) Paclitaxel single agent for 2 weeks and then monitor tumor growth without further treatment • d) 6-(4-Tert-Butylphenoxy)Pyridin-3-Amine + Paclitaxel combination for 2 weeks and then monitor tumor growth without further treatment • e) 6-(4-Tert-Butylphenoxy)Pyridin-3-Amine + Paclitaxel combination for 2 weeks and then continue treatment with 6-(4-Tert-Butylphenoxy)Pyridin-3-Amine alone as single agent and monitor tumor growth.
Tumor dimensions (L=length, W=width) were measured using a digital caliper. Tumor volume was calculated with the following formula: L^∗W^∗W/2. Tumor growth is followed as percentage of initial volume. Median Time To Endpoint (MTTE) was measured in days for an individual group to reach 1000% (10 times) the initial volume as end point. Tumor Growth Delay (TGD) was calculated as difference in days between MTTE of control and treatment groups.

SMILES	TGD compared to control (group a) (group b: single agent for 2 weeks) [days]	efficacy (in words) (single agent alone, HCC1187 xenograft)	TGD compared to control (group a) (groups c, d: treatment for 2 weeks, then no treatment) [days]
CC(C)(C)c1ccc(Oc2ccc(N)cn2)cc1 [6-(4-Tert-Butylphenoxy)Pyridin-3-Amine]	3	only modest efficacy	
CC(=O)O[C@H]1C(=O)[C@@]2(C)[C@H]([C@H](OC(=O)c3ccccc3)[C@]3(O)C[C@H](OC(=O)[C@H](O)[C@@H](NC(=O)c4ccccc4)c4ccccc4)C(C)=C1C3(C)C)[C@]1(OC(C)=O)CO[C@@H]1C[C@@H]2O [Paclitaxel, reference compound]			21
